The values that follow come from patent US20080182851A1, “ACETYLENE DERIVATIVES AS STEAROYL COA DESATURASE INHIBITORS” (Glenmark Pharmaceuticals S.A., priority 2006, published 2008).

This assay deals with T1, human SCD1 enzyme (Homo sapiens, UniProt O00767).
T1 sequence (O00767 1-359): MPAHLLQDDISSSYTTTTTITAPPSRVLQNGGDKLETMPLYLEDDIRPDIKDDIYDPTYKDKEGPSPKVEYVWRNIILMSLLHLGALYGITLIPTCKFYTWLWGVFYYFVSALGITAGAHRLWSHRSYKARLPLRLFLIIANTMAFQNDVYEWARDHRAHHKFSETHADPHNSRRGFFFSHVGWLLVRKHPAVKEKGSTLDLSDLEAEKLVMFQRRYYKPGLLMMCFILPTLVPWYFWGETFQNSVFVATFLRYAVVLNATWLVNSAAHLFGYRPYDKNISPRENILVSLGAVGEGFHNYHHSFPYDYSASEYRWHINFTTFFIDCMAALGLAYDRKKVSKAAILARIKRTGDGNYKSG
The assay can be described thus: Tritiated water release assay (conversion of radiolabeled stearoyl-CoA to oleoyl-CoA). Type of assay: biochemical. To be noted: 10 μM concentration of test compounds; microsomal SCD1, 3H stearoyl CoA, 37° C. 30 minutes; percent of control reaction; read-out: % Inhibition. The method, then:
The in-vitro activity of the compounds of the present invention against stearoyl coenzyme desaturase was determined by following conversion of radiolabeled-stearoyl-CoA to oleoyl-CoA using human SCD1 enzyme using a previously published assay procedure with some modifications (Barbara R Talamo and Konrad Bloch, Analytical Biochemistry, 1969, 29, 300-304). This assay protocol is only illustrative and is not meant to limit to the scope of the present invention.
In this assay the microsomal SCD1 enzyme desaturates its substrate, Stearoyl CoA (purchased from American Radiochemicals Ltd.) which is tritiated at C9 and C10 positions. Test compounds were dissolved in dimethylsulfoxide and tested at 10 μM final concentration. Before substrate addition, the test compound or standard reference compound (conjugated linoleic acid at 100 μM final concentration) were pre-incubated in reaction buffer with the enzyme for 10 minutes at 30° C. with shaking. Reaction buffer was prepared as described in literature (Obukowicz et al. JPET, 1998, 287, 157-166) except that the MgCl2, ATP (purchased from Sigma) and CoA (purchased from Sigma) concentrations were changed to 4.9 mM, 7.2 mM and 0.54 mM respectively. The desaturation reaction was initiated by addition of 0.5 μCi of ^3H stearoyl CoA and incubated at 37° C. for 30 minutes with shaking. A control reaction was set without any test compound/reference inhibitor to capture maximum enzymatic activity in the assay. Inhibition of enzyme activity was calculated as a percent of this control reaction giving maximum catalysis and the results are given in Table 5.
Table 5: Tritiated water release assay at 10 μM substrate concentration *Conjugated Linoleic acid was used as a reference standard

Regarding `COc1cccc(C#Cc2ccc(N3CCN(C(=O)c4cc(Cl)ccc4Cl)CC3)nc2)c1` [Example 31, 2,5-Dichlorophenyl-4-{5-[2-(3-methoxyphenyl)-1-ethynyl]-2-pyridyl}piperazino-methanone], the inhibition at 10 µM was determined as 21%.

Regarding `COC(=O)c1ccc(C#Cc2ccc(N3CCN(C(=O)c4ccccc4C(F)(F)F)CC3)nc2)cc1` [Example 32], the inhibition at 10 µM is 35%.

As to `O=C(c1ccccc1C(F)(F)F)N1CCN(c2ccc(C#Cc3cccc(CO)c3)cn2)CC1` [Example 33, 4-{5-[2-(3-Hydroxymethylphenyl)-1-ethynyl]-2-pyridyl}piperazino-2-trifluoromethyl-phenylmethanone], the inhibition at 10 µM came to 20%.

Turning to `CCOC(=O)c1cc(C#Cc2ccc(N3CCN(C(=O)c4ccccc4C(F)(F)F)CC3)nc2)ccc1OC(C)=O` [Example 34], the inhibition at 10 µM came to 29%.

As for `O=C(O)c1cc(C#Cc2ccc(N3CCN(C(=O)c4ccccc4C(F)(F)F)CC3)nc2)ccc1O` [Example 35, 2-Hydroxy-5-(2-{6-[4-(2-trifluoromethylbenzoyl)piperazino]-3-pyridyl}-1-ethynyl)-benzoic acid], the inhibition at 10 µM worked out at 36%.

In the case of `CC(=O)Nc1cccc(C#Cc2ccc(N3CCN(C(=O)c4ccccc4C(F)(F)F)CC3)nc2)c1` [Example 36, N1-[3-(2-{6-[4-(2-Trifluoromethylbenzoyl)piperazino]-3-pyridyl}-1-ethynyl)phenyl]acetamide], the inhibition at 10 µM stood at 23%.

Take `O=C(c1ccccc1C(F)(F)F)N1CCN(c2ccc(C#Cc3ccc(O)cc3)nn2)CC1` [Example 37]: the inhibition at 10 µM came out at 89%.

Turning to `O=C(c1ccccc1C(F)(F)F)N1CCN(c2ccc(C#Cc3cccc(O)c3)nn2)CC1` [Example 38, 4-{6-[2-(3-Hydroxyphenyl)-1-ethynyl]-3-pyridazinyl}piperazino-2-trifluoromethyl-phenylmethanone], the inhibition at 10 µM was 99%.

Turning to `O=C(c1ccccc1C(F)(F)F)N1CCN(c2ccc(C#Cc3ccc(F)cc3)nn2)CC1` [Example 39], the inhibition at 10 µM came to 75%.

Regarding `O=C(c1ccccc1C(F)(F)F)N1CCN(c2ccc(C#Cc3ccc(F)c(F)c3)nn2)CC1` [Example 40, 4-{6-[2-(3,4-Difluorophenyl)-1-ethynyl]-3-pyridazinyl}piperazino-2(trifluoromethyl)-phenylmethanone], the inhibition at 10 µM was found to be 81%.

As to `O=C(c1ccccc1C(F)(F)F)N1CCN(c2ccc(C#Cc3ccc(C(F)(F)F)cc3)nn2)CC1` [Example 41, 2-Trifluoromethylphenyl-4-{6-[2-(4-trifluoromethylphenyl)-1-ethynyl]-3-pyridazinyl}-piperazinomethanone], the inhibition at 10 µM was found to be 93%.

As to `O=C(c1ccccc1C(F)(F)F)N1CCN(c2ncc(C#Cc3ccc(O)cc3)cn2)CC1` [Example 42, 4-{5-[2-(4-Hydroxyphenyl)-1-ethynyl]-2-pyrimidinyl}piperazino-2-trifluoromethyl-phenylmethanone], the inhibition at 10 µM came out at 92%.

In the case of `O=C(c1ccccc1C(F)(F)F)N1CCN(c2ncc(C#Cc3cccc(O)c3)cn2)CC1` [Example 43], the inhibition at 10 µM was 98%.

Turning to `CCOC(=O)c1ccc(C#Cc2ccc(N3CCN(C(=O)c4ccccc4C(F)(F)F)CC3)nc2)nc1` [Example 44], the inhibition at 10 µM came out at 37%.

As for `O=C(c1ccccc1C(F)(F)F)N1CCN(c2ccc(C#Cc3cnccn3)cn2)CC1` [Example 45], the inhibition at 10 µM amounted to 43%.

As for `O=C(c1cc(Cl)ccc1Cl)N1CCN(c2ccc(C#Cc3cnccn3)cn2)CC1` [Example 46], the inhibition at 10 µM is 29%.

As for `CCCCn1ccnc1C#Cc1ccc(N2CCN(C(=O)c3ccccc3C(F)(F)F)CC2)nc1` [Example 47, 4-{5-[2-(1-Butyl-1H-2-imidazolyl)-1-ethynyl]-2-pyridyl}piperazino-2-trifluoromethyl-phenylmethanone], the inhibition at 10 µM came out at 33%.

In the case of `CC(C)CCn1ccnc1C#Cc1ccc(N2CCN(C(=O)c3ccccc3C(F)(F)F)CC2)nc1` [Example 48], the inhibition at 10 µM turned out to be 22%.

`O=C(c1ccccc1C(F)(F)F)N1CCN(c2ccc(C#Cc3ccc4[nH]ccc4c3)cn2)CC1` [Example 49, 4-{5-[2-(1H-5-Indolyl)-1-ethynyl]-2-pyridyl}piperazino-2-trifluoromethylphenyl-methanone]: the inhibition at 10 µM is 91%.

On to `O=C(c1ccccc1C(F)(F)F)N1CCN(c2ncc(C#Cc3ccc4[nH]ccc4c3)cn2)CC1` [Example 50, 4-{5-[2-(1H-5-Indolyl)-1-ethynyl]-2-pyrimidinyl}piperazino-2-trifluoromethylphenyl-methanone], for which the inhibition at 10 µM worked out at 66%.

Consider `O=C(c1ccccc1C(F)(F)F)N1CCN(c2ncc(C#Cc3ccc(N4CCCS4(=O)=O)cc3)cn2)CC1` [Example 51], for which the inhibition at 10 µM came out at 22%.

`O=C(c1ccccc1C(F)(F)F)N1CCN(c2ncc(C#Cc3ccc(-n4cccc4)cc3)cn2)CC1` [Example 52]: the inhibition at 10 µM amounted to 39%.

Consider `CC(=O)Oc1ccc(C#Cc2cnc(N3CCN(C(=O)c4ccccc4C(F)(F)F)CC3)s2)cc1` [Example 53, 4-(2-{2-[4-(2-Trifluoromethylbenzoyl)piperazino]-1,3-thiazol-5-yl}-1-ethynyl)phenyl acetate], for which the inhibition at 10 µM stood at 47%.

For the compound `N#Cc1cccc(C#Cc2ccc(N3CCN(C(=O)C4CCCC4)CC3)nn2)c1` [Example 54, 3-({6-[4-(Cyclopentylcarbonyl)piperazin-1-yl]pyridazin-3-yl}ethynyl)benzonitrile], the inhibition at 10 µM worked out at 47%.

On to `Oc1cccc(C#Cc2ccc(N3CCN(CC4CC4)CC3)nn2)c1` [Example 55, 3-({6-[4-(Cyclopropylmethyl)piperazin-1-yl]pyridazin-3-yl}ethynyl)phenol], for which the inhibition at 10 µM was found to be 60%.

In the case of `CC(=O)Oc1cccc(C#Cc2ccc(N3CCN(CC4CCCCC4)CC3)nn2)c1` [Example 56], the inhibition at 10 µM was 92%.

For `Oc1cccc(C#Cc2ccc(N3CCN(CC4CCCCC4)CC3)nn2)c1` [Example 57, 3-({6-[4-(Cyclohexylmethyl)piperazin-1-yl]pyridazin-3-yl}ethynyl)phenol], the inhibition at 10 µM came to 96%.

On to `Fc1ccccc1CN1CCN(c2ccc(C#CC3CCCCO3)nn2)CC1` (stereo not drawn) [Example 58], for which the inhibition at 10 µM was found to be 6%.

In the case of `Oc1cccc(C#Cc2ccc(N3CCN(Cc4ccccc4F)CC3)nn2)c1` [Example 60, 3-({6-[4-(2-Fluorobenzyl)piperazin-1-yl]pyridazin-3-yl}ethynyl)phenol], the inhibition at 10 µM is 95%.

Turning to `CC(=O)Oc1ccc(C#Cc2ccc(N3CCC(O)(Cc4ccccc4)CC3)nn2)cc1` [Example 61, 4-{[6-(4-Benzyl-4-hydroxypiperidin-1-yl)pyridazin-3-yl]ethynyl}phenyl acetate], the inhibition at 10 µM stood at 97%.

On to `Oc1ccc(C#Cc2ccc(N3CCC(O)(Cc4ccccc4)CC3)nn2)cc1` [Example 62, 4-Benzyl-1-{6-[(4-hydroxyphenyl)ethynyl]pyridazin-3-yl}piperidin-4-ol], for which the inhibition at 10 µM amounted to 99%.

With `Oc1ccc(C#Cc2ccc(N3CCC(O)(Cc4ccccc4F)CC3)nn2)cc1` [Example 63, 4-(2-Fluorobenzyl)-1-{6-[(4-hydroxyphenyl)ethynyl]pyridazin-3-yl}piperidin-4-ol], the inhibition at 10 µM was determined as 94%.

On to `CC(=O)Oc1ccc(C#Cc2ccc(N3CCC(O)(Cc4cc(Cl)ccc4Cl)CC3)nn2)cc1` [Example 64], for which the inhibition at 10 µM is 87%.
